From patent US11542492B2 (Celgene CAR LLC, priority 2009, dated 2023)

Assays:
HCT116 = assay: HCT116-WB assay; format: cell-based; conditions: Homo sapiens, HCT-116; read-out: HCT116-WB Inhibition Designation
p120γ (PI3Kγ) = biological target: T1, p120γ (PI3Kγ) (Homo sapiens, UniProt P48736); assay: HTRF assay, p120γ; format: biochemical; conditions: PI3Kγ; read-out: PI3Kγ HTRF IC50 Inhibition Designation
T1 construct: purchased BPS Bioscience 40625
Summary of the method: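 End-point competition-binding HTRF with 1-4 nM enzyme and 10 μM di-C8-PIP2, pre-incubated with compound 30 min at 25° C, then 50 μM ATP for 15-30 min at 25° C. HTRF ratio (665/620 nm) gave % inhibition; IC50 from variable-slope log-dose fit.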

p110α/p85α (PI3Kα) = biological target: T2, p110α/p85α (PI3Kα) (Homo sapiens, UniProt P42336); assay: HTRF assay, p110α/p85α; format: biochemical; conditions: read-out: PI3Kα-HTRF-IC50 nM Inhibition Designation
T2 construct: purchased BPS Bioscience or Millipore 40620 (BPS Bioscience) or 14-602 (Millipore)
Protocol: HTRF Assay Protocol for Potency Assessment Against the Active Form of p110α/p85α:
(§1) The mechanics of the assay platform are best described by the vendor (Millipore, Billerica, Mass.) on their website at the following URL: http://www.millipore.com/coa/tech1/74jt4z.
(§2) Briefly, Stop solution (Stop A, #33-007 and Stop B, #33-009; 3:1 ratio) and Detection Mix (DMC, #33-015 with DMA, #33-011 and DMB, #33-013; 18:1:1 ratio) were prepared as recommended by the manufacturer ˜2 hrs prior to use. […] Lipid kinase reactions were started with the addition of 5 μL of ATP solution, mixed for 15 sec on a rotary plate shaker and incubated for 15-30 minutes at 25° C. Next, reactions were stopped with a 5 μL addition of Stop solution followed by a 5 μL volume of Detection Mix. […] At the conclusion of each assay, the HTRF ratio from fluorescence emission values for each well was calculated and % Inhibition determined from averaged controls wells. % Inhibition values for each compound re then plotted against inhibitor concentration to estimate IC50 from log [Inhibitor] vs Response, Variable Slope model in GraphPad Prism from GraphPad Software (San Diego, Calif.).

[1] = biological target: T3, recombinant human ML-IAPβ (Homo sapiens, UniProt Q96CA5); assay: Fluorescence polarization competition binding assay, ML-IAPβ; conditions: ML-IAP, 2 h
T3 construct: purchased R&D Systems 818-IA
T3 sequence (Q96CA5 1-280 isoform Q96CA5-2): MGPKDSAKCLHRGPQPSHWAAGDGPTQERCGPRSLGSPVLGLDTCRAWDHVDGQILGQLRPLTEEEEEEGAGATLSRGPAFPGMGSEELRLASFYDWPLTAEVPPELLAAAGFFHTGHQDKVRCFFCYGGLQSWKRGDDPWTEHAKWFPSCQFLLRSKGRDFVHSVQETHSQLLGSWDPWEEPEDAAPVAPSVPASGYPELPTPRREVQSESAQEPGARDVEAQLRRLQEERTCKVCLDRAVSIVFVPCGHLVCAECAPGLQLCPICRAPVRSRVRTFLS
Protocol: (§3) Homogeneous, Fluorescence Polarization, Competition Binding Assay Protocol for Affinity Assessment of Compound Binding to XIAP, cIAP-1 and ML-IAPβ BIR3 Domains
(§4) 1× stocks of recombinant human XIAP; BIR3 domain (895-XB), recombinant human cIAP-1 (818-IA) or recombinant human ML-IAPβ (818-IA) from R&D Systems and Fluorescence Polarization (FP) assay tracer (Atto-647 tagged IAP inhibitor probe compound) were prepared in assay buffer consisting of 25 mM Tris-HCL, pH 7.5 (Sigma), 10 mM […] (Sigma), 1 mM DTT (Fluka) and 0.005% TritonX-100 (Pierce). While IAP protein and tracer equilibrated at ambient temp in the dark (30-60 min), 100× stocks of test compound were prepared in 50% DMSO:H2O, serially diluted and spotted (0.5 µL/well) in duplicate wells of a 384-well, flat bottom, polypropylene, black assay plate (Greiner #781209). […] Competition binding between test compounds and assay tracer was initiated by the addition of 50 µL/well of pre-equilibrated IAP protein and assay tracer. Displacement of the assay tracer was measured in a Synergy plate reader from BioTek (Winooski, Vt.) at λex620/λem680 through a 660 nm half-sized dicroich mirror and S/P polarizing filters every 30 min for 3 hr. (See Huang, X., Journal of Biomolecular Screening 8, 2003). The resulting compound dose response data were fit to a one-site binding Ki model in GraphPad Prism from GraphPad Software (San Diego, Calif.).

[2] = biological target: T4, recombinant human XIAP; BIR3 domain (Homo sapiens, UniProt P98170); assay: Fluorescence polarization competition binding assay, XIAP BIR3 domain
T4 construct: recombinant human XIAP; BIR3 domain (895-XB); purchased R&D Systems 895-XB
Protocol: as §3, §4

recombinant human cIAP-1 = biological target: T5, recombinant human cIAP-1 (Homo sapiens, UniProt Q13490); assay: Fluorescence polarization competition binding assay, cIAP-1; conditions: c-IAP-1, 3 h
T5 construct: purchased R&D Systems 818-IA
Protocol: as §3, §4

NS3/4A C159S = biological target: T6, NS3/4A C159S (Hepatitis C virus genotype 1b, UniProt Q9WMX2, C1185S); assay: Lysine modification using biotinylated covalent probe in cell lysate; format: binding, HCV; conditions: FIG. 10, 1 μM probe, 1h
T6 construct: expressed in transfected cells
Text: The pCI-Neo-FLAG-NS3/4a-WT plasmid was constructed by amplifying the NS3 and 4a sequence from the pFK-I389-luc-ubi-neo-NS3-3′ET vector using Accuprime Pfx (Invitrogen) according to manufacturer's instructions and with primers that added an NheI site and FLAG epitope tag to the 5′ end and an XbaI site to the 3′ end.
The resulting PCR product was then digested with NheI and XbaI and ligated into the same sites of the pCI-Neo vector (Invitrogen). The WT construct was then used as a template for site-directed mutagenesis using the Quickchange II Site-Directed Mutagenesis kit […] and primers containing the K136R or C159S mutations (below).
Lysates were treated with 1 μM of biotinylated covalent probe, XVI-27, for 1h and immunoprecipitated with anti-NS3 antibody (mouse). Immunoblots were probed with streptavidin and anti-NS3 antibody (goat). Successful modification by the covalent probe was assessed and quantified relative to WT NS3.

p110β/p85α (PI3Kβ) = biological target: T7, p110β/p85α (PI3Kβ) (Homo sapiens, UniProt P42338); assay: HTRF assay, p110β/p85α; format: biochemical; conditions: read-out: PI3Kβ HTRF IC50 Inhibition Designation
T7 construct: purchased Millipore 14-603
Protocol: as §1, §2

PI3Kγ = PI3Kγ (Homo sapiens, UniProt P48736); assay: MALDI MS of intact PI3Kγ incubated with compound; format: binding; conditions: 1 hr, 10-fold excess, 37° C.
Protocol: Intact PI3Kγ was incubated for 1 hr at a 10-fold excess of compound XXII-33 to protein at 37° C. 5 μL aliquots of the samples were diluted with 10 μL of 0.1% TFA prior to micro C4 Ziptipping directly onto the MALDI target plate using sinapinic acid as the desorption matrix (10 mg/mL in 0.1% TFA:Acetonitrile 50:50).

XIAP = biological target: T8, XIAP (Homo sapiens, UniProt P98170); assay: MALDI mass spectrometric analysis of intact XIAP incubated with compound; format: binding; conditions: 18 hr, 10-fold excess of compound to protein
T8 construct: recombinant human XIAP; BIR3 domain (895-XB)
Protocol: Intact XIAP was incubated for 18 hr at a 10-fold excess of VII-1 to protein. 3ul aliquots of the samples were diluted with 10 ul of 0.1% TFA prior to micro C4 ZipTipping directly onto the MALDI target using Sinapinic acid as the desorption matrix (10 mg/mL in 0.1% TFA:Acetonitrile 50:50).
Intact XIAP was incubated for 18 hr at a 10-fold excess of VII-21 to protein. 3 ul aliquots of the samples were diluted with 10 ul of 0.1% TFA prior to micro C4 ZipTipping directly onto the MALDI target using Sinapinic acid as the desorption matrix (10 mg/mL in 0.1% TFA:Acetonitrile 50:50).

IC50 (HCT116) [nM]	IC50 (p120γ (PI3Kγ)) [nM]	IC50 (p110α/p85α (PI3Kα)) [nM]	Ki [1] [nM]	Ki (recombinant human cIAP-1) [nM]	Compound	further results
10 to 100	100 to 1000	10 to 100	–	–	CC(C)Oc1c(N(C)Cc2cc3nc(-c4cccc(O)c4)nc(N4CCOCC4)c3s2)c(=O)c1=O [XXII-11]	–
100 to 1000	100 to 1000	–	–	–	C=CC(=O)N1CCN(CC#Cc2cc3nc(-c4cccc(O)c4)nc(N4CCOCC4)c3s2)CC1 [XXII-3]	–
10 to 100	100 to 1000	10 to 100	–	–	CN(Cc1cc2nc(-c3cccc(O)c3)nc(N3CCOCC3)c2s1)C(=O)[C@@H]1CCC(=O)O1 [XXII-6]	–
–	100 to 1000	–	–	–	Nc1ncc(-c2nc(N3CCOCC3)c3sc(CN4CCN(C(=O)C5CC(=O)CC(=O)C5)CC4)cc3n2)cn1 [XXII-33, 5-(4-((2-(2-aminopyrimidin-5-yl)-4-morpholinothieno[3,2-d]pyrimidin-6-yl)methyl)piperazine-1-carbonyl)cyclohexane-1,3-dione]	IC50 (p110β/p85α (PI3Kβ)): 100 to 1000 nM; mass shift of PI3Kγ (PI3Kγ): 492 Da; mass shift of PI3Kγ as percent (PI3Kγ): 90%; modification of PI3Kγ (PI3Kγ): complete modification
100 to 1000	100 to 1000	10 to 100	–	–	O=C1CC[C@H](C(=O)N2CC=C(c3cc4nc(-c5cccc(O)c5)nc(N5CCOCC5)c4s3)CC2)O1 [XXII-2]	–
10 to 100	100 to 1000	100 to 1000	–	–	CN(Cc1cc2nc(-c3cccc(O)c3)nc(N3CCOCC3)c2s1)C(=O)[C@H]1CCC(=O)O1 [XXII-7]	–

The remaining lines, values behind:

Compound	IC50 (HCT116) [nM]	IC50 (p120γ (PI3Kγ)) [nM]	IC50 (p110α/p85α (PI3Kα)) [nM]	Ki [1] [nM]	Ki (recombinant human cIAP-1) [nM]	further results
CC1(C)Cc2nc(N3CCOc4ccc(-c5ccc(C(=O)N6C[C@@H]7C[C@H]6C(=O)O7)cc5)cc43)sc2C(=O)N1 [XXIII-8, (1S,4S)-5-(4-(4-(6,6-dimethyl-4-oxo-4,5,6,7-tetrahydrothiazolo[5,4-c]pyridin-2-yl)-3,4-dihydro-2H-benzo[b][1,4]oxazin-6-yl)benzoyl)-2-oxa-5-azabicyclo[2.2.1]heptan-3-one]	1000 to 10000	100 to 1000	100 to 1000	–	–	–
C=CC(=O)Nc1cccc(CNC(=O)[C@@H]2CC[C@@H]3CCCC[C@H](NC(=O)[C@H](C)N(C)C(=O)OC(C)(C)C)C(=O)N32)c1 [VII-2]	–	–	–	> 10000	> 10000	Ki XIAP [2]: > 10,000 nM; Ki (XIAP) Inhibition Designation ([2]; XIAP): E (IC50≥10,000 nM)
CN[C@@H](C)C(=O)N[C@H]1CCCC[C@H]2CC[C@@H](C(=O)NCc3cccc(COC(=O)CC(C)=O)c3)N2C1=O [VII-29]	–	–	–	10 to 100	1000 to 10000	–
C=C[C@H]1C[C@@]1(NC(=O)[C@@H]1CC(Oc2nccc3cc(OC)ccc23)CN1C(=O)[C@H](CCC(=O)N1C[C@@H]2C[C@H]1C(=O)O2)NC(=O)CCCC(=O)NCCCOCCOCCOCCCNC(=O)CCCC[C@@H]1SC[C@@H]2NC(=O)N[C@@H]21)C(=O)NS(=O)(=O)C1CC1 (stereo partly drawn) [XVI-27, N1-((2S)-1-((2S)-2-((1S,2R)-1-(cyclopropylsulfonylcarbamoyl)-2-vinylcyclopropylcarbamoyl)-4-(6-methoxyisoquinolin-1-yloxy)pyrrolidin-1-yl)-1,5-dioxo-5-((1S,4S)-3-oxo-2-oxa-5-azabicyclo[2.2.1]heptan-5-yl)pentan-2-yl)-N5-(15-oxo-19-((3aS,4S,6aR)-2-oxohexahydro-1H-thieno[3,4-d]imidazol-4-yl)-4,7,10-trioxa-14-azanonadecyl)glutaramide]	–	–	–	–	–	modification by covalent probe (NS3/4A C159S): modifying NS3/4A C159S
C=CS(=O)(=O)Nc1cccc(CNC(=O)[C@@H]2CC[C@@H]3CCCC[C@H](NC(=O)[C@H](C)NC)C(=O)N32)c1 [VII-23]	–	–	–	10 to 100	< 10	–
[2H]C([2H])=C([2H])C(=O)Nc1cccc(CNC(=O)[C@@H]2CC[C@@H]3CCCC[C@H](NC(=O)[C@H](C)NC)C(=O)N32)c1 [VII-16]	–	–	–	100 to 1000	100 to 1000	–
CN[C@@H](C)C(=O)N[C@H]1CCCC[C@H]2CC[C@@H](C(=O)NCc3cccc(NC(=O)[C@H]4CCC(=O)O4)c3)N2C1=O [VII-21]	–	–	–	1000 to 10000	100 to 1000	mass shift of XIAP (XIAP): 522 Da; modification of XIAP (XIAP): complete modification
CN[C@@H](C)C(=O)N[C@H]1CCCC[C@H]2CC[C@@H](C(=O)NCc3cccc(C(=O)N4CC5CCC4C(=O)O5)c3)N2C1=O (stereo partly shown) [VII-43]	–	–	–	> 10000	1000 to 10000	–
CN[C@@H](C)C(=O)N[C@H]1CCCC[C@H]2CC[C@@H](C(=O)N[C@@H]3CCCc4c(NC(=O)C5CCC(=O)O5)cccc43)N2C1=O (stereo partly shown) [VII-30]	–	–	–	10 to 100	10 to 100	–
C=CC(=O)Nc1cccc(CNC(=O)[C@@H]2CC[C@@H]3CCCC[C@H](NC(=O)[C@H](C)NC)C(=O)N32)c1 [VII-1, (3S,6S,10aS)-N-(3-acrylamidobenzyl)-6-((S)-2-(methylamino)propanamido)-5-oxodecahydropyrrolo[1,2-a]azocine-3-carboxamide]	–	–	–	100 to 1000	100 to 1000	Ki XIAP [2]: 161 nM; mass shift of XIAP (XIAP): 417 Da; modification of XIAP (XIAP): complete modification
